We go through one molecule from patent US11739122B2, “Glycopeptide antibiotic compounds, methods for producing the same, and uses thereof” (Academia Sinica, priority 2019, dated 2023).

Values after ≈ are worked out from the molar mass of the structure shown. Bounds are passed on as bounds.

In one test the test system is MRSA ATCC 43300. Nature of the test: MIC, broth microdilution. The test is classed as cell-based, Staphylococcus aureus. Particulars: MRSA ATCC 43300. A digest of the protocol: (§1)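 Inoculum: 0.5 McFarland broth culture, adjusted to ~1×10^8 CFU mL^−1. Incubation 37° C, 18-24 h. Read-out: visible growth; MIC = concentration with no growth in well.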
On the technique in general: Dilution methods test growth across graded concentrations, often in twofold steps.

Another test deals with MRSA ATCC 700698 hVISA. Nature of the test: MIC, broth microdilution. The test is classed as cell-based, Staphylococcus aureus. Particulars: MRSA ATCC 700698 hVISA. The procedure, abridged:
as §1

For another test, the system named is MRSA ATCC 700787 VRSA. Nature of the test: MIC, broth microdilution. It is filed as cell-based, Staphylococcus aureus. The procedure, abridged: as §1
The next test relates to MRSA ATCC 700789 VRSA. The test is described as follows: MIC, broth microdilution. The settings on record: MRSA ATCC 700789 VRSA. The test is classed as cell-based, Staphylococcus aureus. A digest of the protocol: as §1
A further test deals with MRSA ATCC BAA-38. The test is described as follows: MIC, broth microdilution. It is filed as cell-based, Staphylococcus aureus. Particulars: MRSA ATCC BAA-38. The procedure, abridged: as §1
The subject of another test is MRSA ATCC BAA-39. Nature of the test: MIC, broth microdilution. It is filed as cell-based, Staphylococcus aureus. Particulars: MRSA ATCC BAA-39. A digest of the protocol: as §1
For the next test, the system named is MRSA ATCC BAA-44. The test is described as follows: MIC, broth microdilution. The test is classed as cell-based, Staphylococcus aureus. Particulars: MRSA ATCC BAA-44. A digest of the protocol:
as §1

Another test relates to S. aureus ATCC 29213. The test is described as follows: MIC, broth microdilution. The test is classed as cell-based, Staphylococcus aureus. The settings on record: SA ATCC 29213. The procedure, abridged:
as §1

The next test relates to E. faecalis ATCC 29302. Nature of the test: MIC, broth microdilution. The test is classed as cell-based. Particulars: EF ATCC 29302. A digest of the protocol:
as §1

In a further test the test system is VRE ATCC 700221 (vanA). The test is described as follows: MIC, broth microdilution. The test is classed as cell-based, enterococci. Particulars: VRE ATCC 700221 (vanA). The procedure, abridged:
as §1

For a further test, the system named is VRE ATCC 700425 (vanC). The test is described as follows: MIC, broth microdilution. It is filed as cell-based, enterococci. Particulars: VRE ATCC 700425 (vanC). The procedure, abridged:
as §1

In another test the test system is VRE ATCC 700802 (vanB). Nature of the test: MIC, broth microdilution. The test is classed as cell-based, enterococci. The settings on record: VRE ATCC 700802 (vanB). A digest of the protocol:
as §1

The test system of another test is AB ATCC 19606. The test is described as follows: Minimal bactericidal concentration (MBC). The test is classed as cell-based, Acinetobacter baumannii. On the procedure: Minimal Bactericidal Concentration (MBC) Determination
The MBC test is an extension of the MIC examination. MBC was determined by performing subcultures on antibiotic-free agar from both the well where there was no visible growth at the MIC of a tested antibiotic and from the positive control well (with inoculum but without compounds). The plates were incubated at 37° C. for 18-24 hours. The MBC was taken as the lowest concentration of the test compound that results in more than 99.9% reduction of viable bacteria. If MBC was one or two dilutions above a given MIC value (MBC/MIC ratio was less than or equal to four), the antibiotic was considered bactericidal against the test organism.

A further test has as its system A. baumannii ATCC 19606. Nature of the test: Inner membrane permeabilization, propidium iodide (PI). It is filed as cell-based, Acinetobacter baumannii. The settings on record: AB. On the procedure: Membrane Permeabilization Assay
The inner membrane and outer membrane permeabilization was determined by propidium iodide (PI) and 1-N-Phenylnaphthylamine (NPN), respectively. MRSA (ATCC 700787) and A. baumannii (ATCC 19606) at mid-log phase were harvested, washed and resuspended in a solution containing 5 mM glucose and 5 mM HEPES at pH 7.2. For the inner membrane permeabilization, 150 μL cell suspension and 50 μL PI (10 μM) were added together and preincubated for 30 minutes or 60 minutes for MRSA or A. baumannii, respectively. For outer membrane permeabilization activity, 150 μL cell suspension and 50 μL NPN (10 μM) were added together and preincubated for 60 minutes. The change of fluorescence intensity was recorded for 8 minutes at 2 minute intervals with excitation and emission wavelength set at 535 nm and 617 nm, respectively for PI and with excitation and emission wavelength set at 350 nm of 420 nm, respectively, for NPN. When 5 μL of a given test compound was added in the solution, the fluorescence intensity was recorded for another 12 minutes.

Another test deals with MRSA ATCC 700787. Nature of the test: In vivo efficacy, intraperitoneal MRSA infection. Also on record: species or system mice. Particulars: peritoneal fluid, 24 hours post-inoculation, single dose 20 mgkg^−1 IP. How it is done:
In Vivo Efficacy of r6,N-Acyl-Glc Tei Analogs
Female C57BL/6 mice (6 weeks of age; about 16-19 g, 3-5 mice per group) were intraperitoneally inoculated with 300 μL of MRSA ATCC 700787 suspension (about 10^7 CFUmL^−1). For intranasal A. baumannii (ATCC 19606) inoculation, mice were anesthetized, and inoculated intranasally with about 10^7-10^8 CFUmL^−1 A. baumannii in 50 μL of PBS. Treatments were started 1 hour after the bacterial challenge. The dose administration to mice was set as follows: teicoplanin (1) or r6,C8-Tei analog (14) 20 mgkg^−1 was intraperitoneally injected to MRSA-infected mice; amikacin (15 mgkg^−1), teicoplanin (1) (30 mgkg^−1), kanamycin (30 mgkg^−1) or r1,Me2-r6,guanidino-C8 analog (24) (30 mgkg^−1) was intraperitoneally injected to AB-infected mice. To assess bacteraemia, the test animals were sacrificed to collect 1 mL of peritoneal fluid (PF) for MRSA counting or the lungs were lavaged to collect 0.6 mL bronchoalveolar lavage (BAL) fluid for A. baumannii counting.
For MRSA, mice were inoculated intraperitoneally (IP) with 0.3 mL of MRSA ATCC 700787 suspension (about 10^7 CFUmL^−1). […] For the saline treated control, bacterial count was calculated (about 7.5 log CFUmL^−1, FIG. 4A). […]

The MIC is the smallest concentration in the dilution series that meets the test's criterion for growth inhibition. A lower MIC goes with greater potency. The term MBC denotes the lowest tested concentration that kills the bacteria rather than only halting them. Higher therefore signals weaker bactericidal potency.

For the molecule `CCCCCCCC(=O)N[C@H]1[C@H](O[C@@H]2c3ccc(c(Cl)c3)Oc3cc4cc(c3O)Oc3ccc(cc3Cl)C[C@H]3NC(=O)[C@H](N)c5ccc(O)c(c5)Oc5cc(O)cc(c5)[C@H](NC3=O)C(=O)N[C@H]4C(=O)N[C@H]3C(=O)N[C@@H]2C(=O)N[C@H](C(=O)O)c2cc(O)cc(O)c2-c2cc3ccc2O)O[C@H](CO)[C@@H](O)[C@@H]1O` [Compound 14, r6,N-octyl-Glc Tei], the MIC worked out at 0.063 µg/mL (≈ 0.0424 µM) with MRSA ATCC 43300; 0.016 µg/mL (≈ 0.0108 µM) in the test on MRSA ATCC 700698 hVISA; 0.016 µg/mL (≈ 0.0108 µM) in the test on MRSA ATCC 700787 VRSA (MRSA ATCC 700787, Table 4); 0.016 µg/mL (≈ 0.0108 µM) against MRSA ATCC 700787 VRSA (MRSA ATCC 700787 VRSA); 0.5 µg/mL (≈ 0.336 µM) in the test with MRSA ATCC 700789 VRSA; 0.016 µg/mL (≈ 0.0108 µM) against MRSA ATCC BAA-38. Also, the minimum inhibitory concentration (MIC) against MRSA ATCC BAA-39 is 0.016 µg/mL (≈ 0.0108 µM); in the test on MRSA ATCC BAA-44, 0.016 µg/mL (≈ 0.0108 µM); with S. aureus ATCC 29213 it was 0.016 µg/mL (≈ 0.0108 µM); against E. faecalis ATCC 29302, 0.25 µg/mL (≈ 0.168 µM); against VRE ATCC 700221 (vanA), >16 µg/mL; in the test with VRE ATCC 700425 (vanC) it was 1 µg/mL (≈ 0.673 µM). Moreover, the MIC with VRE ATCC 700802 (vanB) was found to be 0.5 µg/mL (≈ 0.336 µM). The minimum bactericidal concentration (MBC) against AB ATCC 19606 worked out at 74.22 µg/mL (≈ 49.9 µM). The same molecule showed an MBC/MIC against AB ATCC 19606 of 1. Moreover, the “inner (cytoplasmic) membrane permeabilization, PI” value in the test on A. baumannii ATCC 19606 is on record as “no activity”. Moreover, the “bacterial load reduced by” value in the test on MRSA ATCC 700787 is listed as 2 log CFUmL^−1.
